Measured values taken from patent US11566007B2, “Ras inhibitors” (Revolution Medicines, Inc., priority 2019, dated 2023).
Read-outs that look alike come from different tables or passages of the source.

Columns and labels:
[1] = tested on: NCI-H358 cells (K-Ras G12C); assay: Potency assay: pERK in NCI-H358 cells; assay type: cell-based, human; settings: H358 KRAS G12C, read-out: pERK EC50
Summary of the method: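 Compounds are dosed as ten 3-fold dilutions from a 10 mM DMSO stock, in duplicate, and left on cells for 4 h at 37 °C, 5% CO2. Phospho-ERK1/2 is then quantified by AlphaLISA SureFire Ultra or In-Cell Western, and IC50 is derived from a 4-parameter sigmoid against log concentration.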

NCI-H358 (K-Ras G12C) = assay: CellTiter-Glo cell viability assay, NCI-H358; assay type: cell-based, human; settings: NCI-H358, 5-day treatment, class symbols, read-out: Additional H358 Cell Viability assay data (K-Ras G12C, IC50)
Summary of the method: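 Luminescent viability readout on day 5 after direct compound addition to plated cells; plates sat ~30 min at room temperature before reading. Values expressed as percent of mean DMSO signal, curves fit with a four-parameter logistic model.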

KRAS G12S = KRAS G12S (Homo sapiens (Human), UniProt P01116+P62937, G12S); assay: Ras-Raf (BRAF RBD) disruption / FRET / MOA assay, KRAS G12S; assay type: biochemical; settings: Ras-Raf disruption/FRET/MOA assay; class symbols; read-out: KRAS G12S FRET data IC50
KRAS G12S, sequence (P01116-2 other isoform, or with tags, fused parts or gaps G12S): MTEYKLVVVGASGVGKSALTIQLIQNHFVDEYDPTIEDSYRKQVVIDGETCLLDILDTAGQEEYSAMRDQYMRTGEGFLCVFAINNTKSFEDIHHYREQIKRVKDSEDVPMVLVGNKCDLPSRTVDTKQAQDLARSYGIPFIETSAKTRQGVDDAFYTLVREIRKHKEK
KRAS G12S, sequence (P62937 whole entry): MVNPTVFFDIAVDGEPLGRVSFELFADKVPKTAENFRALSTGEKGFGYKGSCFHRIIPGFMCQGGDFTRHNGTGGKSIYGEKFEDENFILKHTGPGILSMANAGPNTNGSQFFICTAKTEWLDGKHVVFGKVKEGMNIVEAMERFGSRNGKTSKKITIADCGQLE
Summary of the method: (§1)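 Compound-driven ternary complex of nucleotide-loaded Ras with cyclophilin A, disrupting BRAF RBD binding. 10-point 3-fold dilution from 30 μM final, 3 h at 25° C, then anti-His Eu-W1024 (10 nM) and anti-GST allophycocyanin (50 nM) for 1.5 h. IC50 from TR-FRET ratio decrease versus DMSO.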

KRAS G12D = KRAS G12D (Homo sapiens (Human), UniProt P01116+P62937, G12D); assay: Ras-Raf (BRAF RBD) disruption / FRET / MOA assay, KRAS G12D; assay type: biochemical; settings: Ras-Raf disruption/FRET/MOA assay; class symbols; read-out: KRAS G12D FRET data IC50
KRAS G12D, sequence (P01116-2 other isoform, or with tags, fused parts or gaps G12D): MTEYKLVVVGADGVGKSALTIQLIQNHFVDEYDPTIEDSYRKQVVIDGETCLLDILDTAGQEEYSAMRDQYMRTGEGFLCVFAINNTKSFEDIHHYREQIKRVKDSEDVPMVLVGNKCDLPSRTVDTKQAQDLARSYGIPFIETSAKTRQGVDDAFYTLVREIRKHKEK
KRAS G12D, sequence (P62937 whole entry): as the sequence (P62937 whole entry) above
Summary of the method: as §1

KRAS Q61H = KRAS Q61H (Homo sapiens (Human), UniProt P01116+P62937, Q61H); assay: Ras-Raf (BRAF RBD) disruption / FRET / MOA assay, KRAS Q61H; assay type: biochemical; settings: Ras-Raf disruption/FRET/MOA assay; class symbols; read-out: KRAS Q61H FRET data IC50
KRAS Q61H, sequence (P01116-2 other isoform, or with tags, fused parts or gaps Q61H): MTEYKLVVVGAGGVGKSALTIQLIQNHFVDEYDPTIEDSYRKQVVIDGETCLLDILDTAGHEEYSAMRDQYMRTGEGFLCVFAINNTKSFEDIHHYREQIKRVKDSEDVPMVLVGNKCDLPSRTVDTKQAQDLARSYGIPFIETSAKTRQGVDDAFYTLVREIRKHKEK
KRAS Q61H, sequence (P62937 whole entry, canonical isoform): as the sequence (P62937 whole entry) above
Description: (§2) The purpose of this biochemical assay is to measure the ability of test compounds to facilitate ternary complex formation between a nucleotide-loaded Ras isoform and cyclophilin A; the resulting ternary complex disrupts binding to a BRAF^RBD construct, inhibiting Ras signaling through a RAF effector.
(§3) […]. Compound is present in plate wells as a 10-point 3-fold dilution series starting at a final concentration of 30 μM. After incubation at 25° C. for 3 hours, a mixture of Anti-His Eu-W1024 and anti-GST allophycocyanin is then added to assay sample wells at final concentrations of 10 nM and 50 nM, respectively, and the reaction incubated for an additional 1.5 hours. […] Compounds that facilitate disruption of a Ras:RAF complex are identified as those eliciting a decrease in the TR-FRET ratio relative to DMSO control wells.
(§4) Note—The following protocol describes a procedure for monitoring disruption of K-Ras G12C (GMP-PNP) binding to BRAF^RBD by a compound of the invention. This protocol may also be executed substituting other Ras proteins or nucleotides.
(§5) The purpose of this biochemical assay was to measure the ability of test compounds to facilitate ternary complex formation between a nucleotide-loaded K-Ras isoform and Cyclophilin A; the resulting ternary complex disrupts binding to a BRAF^RBD construct, inhibiting K-Ras signaling through a RAF effector. Data is reported as IC50 values.
as §3, with “Compound was” for “Compound is”, “allophycocyanin was” for “allophycocyanin is”, “a K-Ras:RAF” for “a Ras:RAF”, “complex were” for “complex are”

K-Ras G13C = K-Ras G13C (Homo sapiens (Human), UniProt P01116+P62937, G13C); assay: Ras-Raf (BRAF RBD) disruption / FRET / MOA assay, KRAS G13C; assay type: biochemical; settings: KRAS G13C; Ras-Raf disruption/FRET/MOA assay; read-out: IC50* KRAS G13C FRET data
K-Ras G13C, sequence (P01116-2 other isoform, or with tags, fused parts or gaps G13C): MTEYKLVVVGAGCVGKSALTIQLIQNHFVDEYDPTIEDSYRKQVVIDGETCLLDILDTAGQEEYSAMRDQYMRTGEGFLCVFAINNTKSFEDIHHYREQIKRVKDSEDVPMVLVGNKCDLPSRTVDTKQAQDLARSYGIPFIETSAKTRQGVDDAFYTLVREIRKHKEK
K-Ras G13C, sequence (P62937 whole entry): as the sequence (P62937 whole entry) above
Summary of the method: as §1

KRAS G12V = KRAS G12V (Homo sapiens (Human), UniProt P01116+P62937, G12V); assay: Ras-Raf (BRAF RBD) disruption / FRET / MOA assay, KRAS G12V; assay type: biochemical; settings: read-out: IC50* KRAS G12V FRET data
KRAS G12V, sequence (P01116-2 other isoform, or with tags, fused parts or gaps G12V): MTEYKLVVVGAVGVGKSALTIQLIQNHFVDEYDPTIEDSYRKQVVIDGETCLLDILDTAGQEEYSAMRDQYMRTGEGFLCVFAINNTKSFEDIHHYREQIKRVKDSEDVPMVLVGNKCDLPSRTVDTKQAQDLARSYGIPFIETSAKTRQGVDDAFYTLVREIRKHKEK
KRAS G12V, sequence (P62937 whole entry): as the sequence (P62937 whole entry) above
Summary of the method: as §1

KRAS WT = KRAS WT (Homo sapiens (Human), UniProt P01116+P62937); assay: Ras-Raf (BRAF RBD) disruption / FRET / MOA assay, KRAS WT; assay type: biochemical; settings: read-out: IC50* KRAS WT FRET data
KRAS WT, sequence (P01116-2 other isoform, or with tags, fused parts or gaps): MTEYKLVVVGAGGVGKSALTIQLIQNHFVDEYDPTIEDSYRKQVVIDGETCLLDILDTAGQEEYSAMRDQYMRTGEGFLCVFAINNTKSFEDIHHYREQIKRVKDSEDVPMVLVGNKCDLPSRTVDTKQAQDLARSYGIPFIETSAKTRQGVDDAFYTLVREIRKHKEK
KRAS WT, sequence (P62937 whole entry): as the sequence (P62937 whole entry) above
Summary of the method: as §1

NRAS G12C = NRAS G12C (Homo sapiens (Human), UniProt P01111+P62937, G12C); assay: Ras-Raf (BRAF RBD) disruption / FRET / MOA assay, NRAS G12C; assay type: biochemical; settings: read-out: IC50* NRAS G12C FRET data
NRAS G12C, sequence (P01111 whole entry G12C): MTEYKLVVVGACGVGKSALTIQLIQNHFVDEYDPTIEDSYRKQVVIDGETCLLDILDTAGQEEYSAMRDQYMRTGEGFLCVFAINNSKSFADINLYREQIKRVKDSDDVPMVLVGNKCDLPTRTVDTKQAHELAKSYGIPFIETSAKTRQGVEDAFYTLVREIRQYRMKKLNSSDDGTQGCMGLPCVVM
NRAS G12C, sequence (P62937 whole entry): as the sequence (P62937 whole entry) above
Summary of the method: as §1

NRAS Q61R = NRAS Q61R (Homo sapiens (Human), UniProt P01111+P62937, Q61R); assay: Ras-Raf (BRAF RBD) disruption / FRET / MOA assay, NRAS Q61R; assay type: biochemical; settings: NRAS Q61R; Ras-Raf disruption/FRET/MOA assay; read-out: IC50* NRAS Q61R FRET data
NRAS Q61R, sequence (P01111 whole entry Q61R): as the sequence (P01111 whole entry G12C) above, with C12G, Q61R counted along it
NRAS Q61R, sequence (P62937 whole entry): as the sequence (P62937 whole entry) above
Description: as §2, §3, §4, §5
as §3, with “Compound was” for “Compound is”, “allophycocyanin was” for “allophycocyanin is”, “a K-Ras:RAF” for “a Ras:RAF”, “complex were” for “complex are”

NRAS Q61K = NRAS Q61K (Homo sapiens (Human), UniProt P01111+P62937, Q61K); assay: Ras-Raf (BRAF RBD) disruption / FRET / MOA assay, NRAS Q61K; assay type: biochemical; settings: NRAS Q61K; Ras-Raf disruption/FRET/MOA assay; read-out: IC50* NRAS Q61K FRET data
NRAS Q61K, sequence (P01111 whole entry Q61K): as the sequence (P01111 whole entry G12C) above, with C12G, Q61K counted along it
NRAS Q61K, sequence (P62937 whole entry): as the sequence (P62937 whole entry) above
Description: as §2, §3, §4, §5
as §3, with “Compound was” for “Compound is”, “allophycocyanin was” for “allophycocyanin is”, “a K-Ras:RAF” for “a Ras:RAF”, “complex were” for “complex are”

NRAS WT = NRAS WT (Homo sapiens (Human), UniProt P01111+P62937); assay: Ras-Raf (BRAF RBD) disruption / FRET / MOA assay, NRAS WT; assay type: biochemical; settings: read-out: IC50* NRAS WT FRET data
NRAS WT, sequence (P01111 whole entry): as the sequence (P01111 whole entry G12C) above, with C12G counted along it
NRAS WT, sequence (P62937 whole entry): as the sequence (P62937 whole entry) above
Description: as §2, §3, §4, §5
as §3, with “Compound was” for “Compound is”, “allophycocyanin was” for “allophycocyanin is”, “a K-Ras:RAF” for “a Ras:RAF”, “complex were” for “complex are”

C=CC(=O)N1CC[C@H](C(=O)N(C)[C@H](C(=O)N[C@H]2CC3=NC=C(O3)c3ccc4c(c3)c(c(-c3cccnc3[C@H](C)OC)n4CC)CC(C)(C)COC(=O)[C@@H]3CCCN(N3)C2=O)C(C)C)C1 (atropisomer, axis not shown) [Example A331]
EC50 [1]: < 5000 nM
IC50 (NCI-H358 (K-Ras G12C)): 100 to 1000 nM
IC50 (KRAS G12S): 1000 to 10000 nM
IC50 (KRAS G12D): > 10000 nM
IC50 (KRAS Q61H): 1000 to 10000 nM

CCn1c(-c2cccnc2[C@H](C)OC)c2c3cc(ccc31)-c1cccc(c1)C[C@H](NC(=O)[C@H](C(C)C)N(C)C(=O)[C@H]1CCN(C(=O)C#CC(C)(C)N(C)C)C1)C(=O)N1CCC[C@H](N1)C(=O)OCC(C)(C)C2 (atropisomer, axis not shown) [Example A339]
EC50 [1]: < 5000 nM
IC50 (NCI-H358 (K-Ras G12C)): < 10 nM
IC50 (KRAS G12S): 1000 to 10000 nM
IC50 (KRAS G12D): > 10000 nM
IC50 (KRAS Q61H): 1000 to 10000 nM

C=CC(=O)N(C)[C@H]1CCN(C(=O)N(C)[C@H](C(=O)N[C@H]2Cc3nc(cs3)-c3ccc4c(c3)c(c(-c3cccnc3[C@H](C)OC)n4CC)CC(C)(C)COC(=O)[C@@H]3CCCN(N3)C2=O)C(C)C)C1 (atropisomer, axis not shown) [Example A384]
EC50 ([1]; Homo sapiens, NCI-H358): < 5000 nM
IC50 (NCI-H358 (K-Ras G12C); Homo sapiens, NCI-H358, 120 h): < 10 nM
IC50 (K-Ras G13C): 100 to 1000 nM
IC50 (KRAS G12S): 100 to 1000 nM
IC50 (KRAS G12D): 100 to 1000 nM
IC50 (KRAS G12V): 100 to 1000 nM
IC50 (KRAS WT): 100 to 1000 nM
IC50 (NRAS G12C): 10 to 100 nM
IC50 (NRAS Q61R): 100 to 1000 nM
IC50 (NRAS Q61K): 10 to 100 nM
IC50 (NRAS WT): 100 to 1000 nM

C=CC(=O)N1CCN(C(=O)N(C)[C@H](C(=O)N[C@H]2Cc3nc(cs3)-c3ccc4c(c3)c(c(-c3cccnc3[C@H](C)OC)n4CC)CC(C)(C)COC(=O)[C@@H]3CCCN(N3)C2=O)C(C)C)CC1 (atropisomer, axis not shown) [Example A492]
EC50 [1]: < 5000 nM
IC50 (NCI-H358 (K-Ras G12C)): < 10 nM
IC50 (KRAS G12S): 10 to 100 nM
IC50 (KRAS G12D): 100 to 1000 nM
IC50 (KRAS Q61H): 10 to 100 nM

C=CC(=O)N1CCN(C(=O)N(C)[C@H](C(=O)N[C@H]2Cc3nc(cs3)-c3ccc4c(c3)c(c(-c3cccnc3[C@H](C)OC)n4CC)CC(C)(C)COC(=O)[C@@H]3CCCN(N3)C2=O)C(C)C)CC1 (atropisomer, axis not shown) [Example A493]
EC50 [1]: < 5000 nM
IC50 (NCI-H358 (K-Ras G12C)): < 10 nM
IC50 (KRAS G12S): 10 to 100 nM
IC50 (KRAS G12D): 100 to 1000 nM
IC50 (KRAS Q61H): 10 to 100 nM

C=CC(=O)N1CC[C@H](C(=O)N(C)[C@H](C(=O)N[C@H]2Cc3cc(CF)cc(c3)-c3ccc4c(c3)c(c(-c3cccnc3[C@H](C)OC)n4CC)CC(C)(C)COC(=O)[C@@H]3CCCN(N3)C2=O)C(C)C)C1 (atropisomer, axis not shown) [Example A504]
EC50 [1]: < 5000 nM
IC50 (NCI-H358 (K-Ras G12C)): < 10 nM
IC50 (KRAS G12S): 1000 to 10000 nM
IC50 (KRAS G12D): 1000 to 10000 nM
IC50 (KRAS Q61H): 100 to 1000 nM
